The term IC50 denotes the concentration at which inhibition is half-maximal. For orientation: Kd means the concentration at which binding is half-saturated.

Our source for the IC50 and Kd values is US20250332300A1 (priority 2024, published 2025).

Structures can show the parent of a compound that is named as a salt. Where two headings read alike, the source gives them in different places. Starred links: 1 amine or outer side, 2 acyl side, 3 side chain; linkers in the order of their positions; H or OH if unused. Positions of bridges follow the written chain, without caps; N, C: chain ends. Non-standard residues stand in square brackets, D forms with d. Residues, ends and D or L forms follow the SMILES beside them. Trp(5-OH) = N[C@@H](Cc1c[nH]c2ccc(O)cc12)C(=O)O; NMePhe(4-F) = CN[C@@H](Cc1ccc(F)cc1)C(=O)O; Lys(N3) = [N-]=[N+]=NCCCC[C@H](N)C(=O)O; NMehPhe = CN[C@@H](CCc1ccccc1)C(=O)O; Aad = N[C@@H](CCCC(=O)O)C(=O)O; Gly(cPr) = N[C@H](C(=O)O)C1CC1; Aoc(2) = CCCCCC[C@H](N)C(=O)O; NMeDab = CN[C@@H](CCN)C(=O)O; NMeK = CN[C@@H](CCCCN)C(=O)O; NMeDap = CN[C@@H](CN)C(=O)O; NMeC = CN[C@@H](CS)C(=O)O; NMeS = CN[C@@H](CO)C(=O)O; hCys = N[C@@H](CCS)C(=O)O; Dap = NC[C@H](N)C(=O)O; X5 = O=C(C[*:2])[*:1]

Common to all, as to assay type: binding
For experiment [1], the target named is T1, human HER2 (23-652) (Homo sapiens, UniProt P04626). The experiment in a line: TR-FRET competition assay for peptide potency, human HER2. More on the design: towards human HER2 (23-652) and mouse HER2 (23-653); made in house; host or cells: mammalian cells.
In experiment [2] the target is T1, human HER2 (23-652). Briefly: Surface plasmon resonance (SPR) for assessment of peptide affinity, human HER2. Details: towards human HER2 (23-652) and mouse HER2 (23-653); made in house. The procedure, abridged: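 Binding kinetics fitted from sensorgrams with 280 s peptide association then 3000 s dissociation (30 uL/min), using HER2 (23-652) either directly immobilized (SA/CM5) or anti-Fc-captured; 3 M magnesium chloride used for regeneration.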
For orientation: In SPR one partner is held on a chip, and binding of the other changes the refractive index at the surface.

Experiment [3] has as its target T2, mouse HER2 (23-653) (Mus musculus, UniProt P70424). The experiment in a line: TR-FRET competition assay for peptide potency, mouse HER2. Details: mouse HER2 (23-653) using a Cy5 labeled peptide as a probe; made in house; host or cells: mammalian cells.
Experiment [4] deals with T2, mouse HER2 (23-653). Briefly: Surface plasmon resonance (SPR) for assessment of peptide affinity, mouse HER2. More on the design: mouse HER2 (23-653) using a Cy5 labeled peptide as a probe; made in house. The settings on record: SPR, mouse HER2 extracellular domain, 25° C., 1:1 binding model; read-out: moHER2-SPR-ONC KD. An excerpt: Each protein was immobilized either onto a SA sensorchip (Cytiva, BR-1005-31) or CM5 sensorchip (Cytiva, BR-1005-30) to a density of 800-2000 RU.

Setting [5] is: SPR, human HER2 extracellular domain, 25° C., 1:1 binding model, read-out: huHER2-SPR-ONC KD.
The mark [6] stands for this setting: TR-FRET competition with Cy5 labeled peptide probe, 0.1 nM mouse HER2, 24 h incubation, read-out: moHER2 TR-FRET IC50.

In the case of `CC(=O)N[C@H]1CC(=O)NCC[C@@H](C(=O)N(C)[C@@H](Cc2ccc(F)cc2)C(N)=O)N(C)C(=O)[C@H](C2CC2)NC(=O)[C@H](Cc2c[nH]c3ccccc23)NC(=O)[C@H](Cc2c[nH]c3ccc(O)cc23)NC(=O)[C@H](CO)N(C)C(=O)[C@H](CCc2ccccc2)N(C)C(=O)[C@H](CO)NC(=O)[C@H](Cc2ccc(O)cc2)NC1=O` [Example A9, (2S,5S,8S,11S,14S,17S,20S,23S,29S)-17-((1H-indol-3-yl)methyl)-29-acetamido-N-((S)-1-amino-3-(4-fluorophenyl)-1-oxopropan-2-yl)-20-cyclopropyl-14-((5-hydroxy-1H-indol-3-yl)methyl)-2-(4-hydroxybenzyl)-5,11-bis(hydroxymethyl)-N,7,10,22-tetramethyl-3,6,9,12,15,18,21,27,30-nonaoxo-8-phenethyl-1,4,7,10,13,16,19,22,26-nonaazacyclotriacontane-23-carboxamide] (Ac-DYS[NMehPhe][NMeS][Trp(5-OH)]W[Gly(cPr)][NMeDab][NMePhe(4-F)]-NH2; lactam 1-9), the half-maximal inhibitory concentration (IC50) on human HER2 (23-652) [1] (read-out: huHER2 TR-FRET IC50) amounted to 75 nM; on mouse HER2 (23-653) [3] (setting [6]), 172 nM. The dissociation constant (Kd) at human HER2 (23-652) [2] (setting [5]) stood at 117 nM; at mouse HER2 (23-653) [4], 243 nM.
As to `CC(=O)NCCCC[C@H]1C(=O)N[C@@H](Cc2c[nH]c3ccc(O)cc23)C(=O)N[C@@H](Cc2c[nH]c3ccccc23)C(=O)N[C@@H](C2CC2)C(=O)N(C)[C@H](C(=O)N(C)[C@@H](Cc2ccc(F)cc2)C(=O)N[C@@H](CCCCN=[N+]=[N-])C(N)=O)CNC(=O)CCC[C@H](NC(C)=O)C(=O)N[C@@H](Cc2ccc(O)cc2)C(=O)N[C@@H](CO)C(=O)N(C)[C@@H](CCc2ccccc2)C(=O)N1C` [Example A74] (Ac-[Aad]YS[NMehPhe][NMeK](Ac)[Trp(5-OH)]W[Gly(cPr)][NMeDap][NMePhe(4-F)][Lys(N3)]-NH2; lactam 1-9), the 50% inhibitory concentration (IC50) on human HER2 (23-652) [1] (read-out: huHER2 TR-FRET IC50) is 0.1 nM; at mouse HER2 (23-653) [3] (setting [6]) it was 0.5 nM; at mouse HER2 (23-653) [3] (value in parentheses (**): recalculated after further repetition, read-out: moHER2 TR-FRET IC50, recalculated value achieved after further repetition), 0.3 nM. Moreover, the dissociation constant (Kd) at human HER2 (23-652) [2] (setting [5]) and on mouse HER2 (23-653) [4] was 0.1 nM in each case.
Consider `CC(=O)N[C@H]1CCC(=O)NCC[C@@H](C(=O)N(C)[C@@H](Cc2ccc(F)cc2)C(N)=O)N(C)C(=O)[C@H](C2CC2)NC(=O)[C@H](Cc2c[nH]c3ccccc23)NC(=O)[C@H](Cc2c[nH]c3ccc(O)cc23)NC(=O)[C@H](CO)N(C)C(=O)[C@H](CCc2ccccc2)N(C)C(=O)[C@H](CO)NC(=O)[C@H](Cc2ccc(O)cc2)NC1=O` [Example A10, (2S,5S,8S,11S,14S,17S,20S,23S,30S)-17-((1H-indol-3-yl)methyl)-30-acetamido-N-((S)-1-amino-3-(4-fluorophenyl)-1-oxopropan-2-yl)-20-cyclopropyl-14-((5-hydroxy-1H-indol-3-yl)methyl)-2-(4-hydroxybenzyl)-5,11-bis(hydroxymethyl)-N,7,10,22-tetramethyl-3,6,9,12,15,18,21,27,31-nonaoxo-8-phenethyl-1,4,7,10,13,16,19,22,26-nonaazacyclohentriacontane-23-carboxamide], for which the concentration for half-maximal inhibition (IC50) was found to be 536 nM on human HER2 (23-652) [1] (read-out: huHER2 TR-FRET IC50) and 684 nM at mouse HER2 (23-653) [3] (setting [6]). For the same compound, the figures for the Kd on human HER2 (23-652) [2] (setting [5]) and at mouse HER2 (23-653) [4] were 482 nM and 520 nM, respectively.
Consider `CN1C(=O)[C@H](CO)NC(=O)[C@H](Cc2ccc(O)cc2)NC(=O)[C@@H](N)CNC(=O)CSC[C@@H](C(=O)N(C)[C@@H](Cc2ccc(F)cc2)C(N)=O)N(C)C(=O)[C@H](C2CC2)NC(=O)[C@H](Cc2c[nH]c3ccccc23)NC(=O)[C@H](Cc2c[nH]c3ccc(O)cc23)NC(=O)[C@H](CO)N(C)C(=O)[C@@H]1CCc1ccccc1` [Example A53, (3R,6S,9S,12S,15S,18S,21S,24S,27S)-9-((1H-indol-3-yl)methyl)-27-amino-N—((S)-1-amino-3-(4-fluorophenyl)-1-oxopropan-2-yl)-6-cyclopropyl-12-((5-hydroxy-1H-indol-3-yl)methyl)-24-(4-hydroxybenzyl)-15,21-bis(hydroxymethyl)-N,4,16,19-tetramethyl-5,8,11,14,17,20,23,26,30-nonaoxo-18-phenethyl-1-thia-4,7,10,13,16,19,22,25,29-nonaazacyclohentriacontane-3-carboxamide TFA salt] (H-[Dap]YS[NMehPhe][NMeS][Trp(5-OH)]W[Gly(cPr)][NMeC][NMePhe(4-F)]-NH2; linker 1-9 via X5), for which the half-inhibitory concentration (IC50) on human HER2 (23-652) [1] (huHER2 TR-FRET IC50, TR-FRET competition with Cy5 labeled peptide probe, 0.1 nM human HER2, 24 h incubation) amounted to 163 nM; on mouse HER2 (23-653) [3] (setting [6]), 466 nM. Moreover, the equilibrium dissociation constant (Kd) at human HER2 (23-652) [2] came out at 132 nM; at mouse HER2 (23-653) [4], 154 nM.
For `CC(=O)N[C@H]1CCC(=O)NC[C@@H](C(=O)N(C)[C@@H](Cc2ccc(F)cc2)C(N)=O)NC(=O)[C@H](C2CC2)NC(=O)[C@H](Cc2c[nH]c3ccccc23)NC(=O)[C@H](Cc2c[nH]c3ccc(O)cc23)NC(=O)[C@H](CO)N(C)C(=O)[C@H](CCc2ccccc2)N(C)C(=O)[C@H](CO)NC(=O)[C@H](Cc2ccc(O)cc2)NC1=O` [Example A12, (3S,6S,9S,12S,15S,18S,21S,24S,27S)-9-((1H-indol-3-yl)methyl)-27-acetamido-N-((S)-1-amino-3-(4-fluorophenyl)-1-oxopropan-2-yl)-6-cyclopropyl-12-((5-hydroxy-1H-indol-3-yl)methyl)-24-(4-hydroxybenzyl)-15,21-bis(hydroxymethyl)-N,16,19-trimethyl-5,8,11,14,17,20,23,26,30-nonaoxo-18-phenethyl-1,4,7,10,13,16,19,22,25-nonaazacyclotriacontane-3-carboxamide], the concentration for half-maximal inhibition (IC50) on human HER2 (23-652) [1] (read-out: huHER2 TR-FRET IC50) and on mouse HER2 (23-653) [3] (setting [6]) was above 1000 nM throughout. The results for the Kd at human HER2 (23-652) [2] (setting [5]) and on mouse HER2 (23-653) [4] were 1340 nM and 864 nM, respectively.
Take `CC(=O)NCCCC[C@H]1C(=O)N[C@@H](Cc2c[nH]c3ccc(O)cc23)C(=O)N[C@@H](Cc2c[nH]c3ccccc23)C(=O)N[C@@H](C2CC2)C(=O)N(C)[C@H](C(=O)N(C)[C@@H](Cc2ccc(F)cc2)C(=O)N[C@@H](CCCCNC(=O)CN2CCN(CC(=O)O)CCN(CC(=O)O)CCN(CC(=O)O)CC2)C(N)=O)CNC(=O)CCC[C@H](NC(=O)CO)C(=O)N[C@@H](Cc2ccc(O)cc2)C(=O)N[C@@H](CO)C(=O)N(C)[C@@H](CCc2ccccc2)C(=O)N1C` [Example C15]: the half-inhibitory concentration (IC50) was below 0.1 nM at human HER2 (23-652) [1] (TR-FRET competition with Cy5 labeled peptide probe, 0.1 nM human HER2, 24 h incubation, read-out: huHER2 TR-FRET IC50) and 0.2 nM at mouse HER2 (23-653) [3] (setting [6]). For the same compound, the Kd at human HER2 (23-652) [2] (setting [5]) and on mouse HER2 (23-653) [4] was below 0.1 nM throughout.
Regarding `CN1C(=O)[C@H](CO)NC(=O)[C@H](Cc2ccc(O)cc2)NC(=O)[C@@H](N)CCSSC[C@@H](C(=O)N(C)[C@@H](Cc2ccc(F)cc2)C(N)=O)N(C)C(=O)[C@H](C2CC2)NC(=O)[C@H](Cc2c[nH]c3ccccc23)NC(=O)[C@H](Cc2c[nH]c3ccc(O)cc23)NC(=O)[C@H](CO)N(C)C(=O)[C@@H]1CCc1ccccc1` [Example A57, (4R,7S,10S,13S,16S,19S,22S,25S,28S)-10-((1H-indol-3-yl)methyl)-28-amino-N-((S)-1-amino-3-(4-fluorophenyl)-1-oxopropan-2-y1)-7-cyclopropyl-13-((5-hydroxy-1H-indol-3-y1)methyl)-25-(4-hydroxybenzyl)-16,22-bis(hydroxymethyl)-N,5,17,20-tetramethyl-6,9,12,15,18,21,24,27-octaoxo-19-phenethyl-1,2-dithia-5,8,11,14,17,20,23,26-octaazacyclotriacontane-4-carboxamide TFA salt] (H-[hCys]YS[NMehPhe][NMeS][Trp(5-OH)]W[Gly(cPr)][NMeC][NMePhe(4-F)]-NH2; disulfide 1-9), the half-maximal inhibitory concentration (IC50) at human HER2 (23-652) [1] (read-out: huHER2 TR-FRET IC50) and on mouse HER2 (23-653) [3] (setting [6]) was above 1000 nM each time. Moreover, the Kd at human HER2 (23-652) [2] (setting [5]) turned out to be 2000 nM; at mouse HER2 (23-653) [4], 1460 nM.
Take `CCCCCC[C@@H]1NC(=O)[C@H](Cc2c[nH]c3ccc(O)cc23)NC(=O)[C@H](CCCCNC(C)=O)N(C)C(=O)[C@H](CCc2ccccc2)N(C)C(=O)[C@H](CO)NC(=O)[C@H](Cc2ccc(O)cc2)NC(=O)[C@@H](NC(C)=O)CCCC(=O)NC[C@@H](C(=O)N(C)[C@@H](Cc2ccc(F)cc2)C(N)=O)N(C)C(=O)[C@H](C2CC2)NC1=O` [Example A18, (3S,6S,9S,12S,15S,18S,21S,24S,27S)-27-acetamido-15-(4-acetamidobutyl)-N-((S)-1-amino-3-(4-fluorophenyl)-1-oxopropan-2-yl)-6-cyclopropyl-9-hexyl-12-((5-hydroxy-1H-indol-3-yl)methyl)-24-(4-hydroxybenzyl)-21-(hydroxymethyl)-N,4,16,19-tetramethyl-5,8,11,14,17,20,23,26,31-nonaoxo-18-phenethyl-1,4,7,10,13,16,19,22,25-nonaazacyclohentriacontane-3-carboxamide] (Ac-[Aad]YS[NMehPhe][NMeK](Ac)[Trp(5-OH)][Aoc(2)][Gly(cPr)][NMeDap][NMePhe(4-F)]-NH2; lactam 1-9): the IC50 at human HER2 (23-652) [1] (read-out: huHER2 TR-FRET IC50) and on mouse HER2 (23-653) [3] (setting [6]) was above 1000 nM each time. Also, the equilibrium dissociation constant (Kd) at human HER2 (23-652) [2] (setting [5]) and at mouse HER2 (23-653) [4] was above 6000 nM each time.
